The structures appear in SMILES notation. Entries after “also recorded” stand apart in the source; their conditions may differ.

This is an account of results in patent CN117899087A, “与g蛋白偶联型雌激素受体结合的治疗乳腺癌的中药提取物及其应用” (Wuxi Hospital of Traditional Chinese Medicine, priority 2024, dated 2024).

Test [1] has as its system triple-negative breast cancer MDA-MB-231 cells [三阴性乳腺癌MDA-MB-231细胞]. Nature of the test: MTT assay of MDA-MB-231 cell proliferation. The conditions noted are these: MDA-MB-231, 24 h. In kind it is cell-based.
Test [2] deals with GPER (Homo sapiens, UniProt Q99527). Nature of the test: GPER activity (conclusion, no separate method). In kind it is biochemical.
GPER, sequence (Q99527 whole entry, species assumed): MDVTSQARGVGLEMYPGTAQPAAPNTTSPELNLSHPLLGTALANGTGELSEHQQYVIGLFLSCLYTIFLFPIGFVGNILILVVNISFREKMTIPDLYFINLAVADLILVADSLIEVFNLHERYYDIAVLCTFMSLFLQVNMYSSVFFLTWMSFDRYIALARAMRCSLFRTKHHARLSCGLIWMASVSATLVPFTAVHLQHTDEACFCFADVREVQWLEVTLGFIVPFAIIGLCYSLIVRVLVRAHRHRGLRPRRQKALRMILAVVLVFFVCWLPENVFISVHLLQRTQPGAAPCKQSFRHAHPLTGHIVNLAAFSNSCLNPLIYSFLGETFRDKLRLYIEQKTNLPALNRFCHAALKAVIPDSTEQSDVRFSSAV
Test [3] has as its system retinoid X receptor [类视黄醇X受体]. The note with it: cited from earlier work.
Test [4] has as its target T1, GPER target protein [GPER靶蛋白] (Homo sapiens, UniProt Q99527).
T1 construct: expressed in transfected cells; host or cells: 293T (HEK-293T), lentiviral recombinant plasmid system
Nature of the test: Cellular thermal shift analysis (CESTA) with Western blot. The conditions noted are these: 10 μM, 24 h, GPER overexpressing HEK-293T. In kind it is binding.

The target in test [5] is T2, GPER-1 overexpressing 293T cells [GPER-1过表达细胞, 293T细胞系] (Homo sapiens, UniProt Q99527).
T2 construct: expressed in transfected cells; host or cells: 293T (HEK-293T), lentiviral recombinant plasmid system
T2 sequence (Q99527 whole entry): as the sequence (Q99527 whole entry, species assumed) above
Nature of the test: UPLC-QTOF/MS screening of CGD components binding to GPER-1 overexpressing cells. The note with it: GPER gene overexpressing cell line.

T1 sequence (Q99527 whole entry): as the sequence (Q99527 whole entry, species assumed) above

In the case of `CC(C)=CCC[C@@H](C(=O)O)[C@H]1[C@H](O)C[C@@]2(C)C3=CC[C@H]4C(C)(C)[C@@H](O)CC[C@]4(C)C3=CC[C@]12C` [16α-羟基松苓新酸, 16α-Hydroxydehydrotrametenolic acid], the “inhibition of triple-negative breast cancer cell proliferation at 10 μmol/L” value in test [1] (10 μmol/L) is “具有抑制三阴乳腺癌细胞增殖的能力”. The “inhibition of cancer cell proliferation at 40 μmol/L” value in test [1] (40 μmol/L) is listed as “接近最大抑制能力”. The “inhibition of triple-negative breast cancer cell proliferation” value in test [1] (0.5-100 μmol/L, Fig. 4) was “具有显著的抑制三阴乳腺癌细胞增殖的能力”. In test [1] (40 vs 100 μmol/L), the “inhibition at 40 μmol/L compared with 100 μmol/L” value is listed as “和100μmol/L浓度相当”. Further, the “concentration dependence of cancer cell inhibition” value in test [1] (increasing concentration from 10 μmol/L) is given as “抑制癌细胞的能力随浓度增高而增加”. Moreover, the GPER activity entry in test [2] is “提高GPER活性”. In test [3], the “agonism at retinoid X receptor” value is listed as “天然选择性激动剂”. Further, in test [4], the “binding ability to GPER (CESTA)” value is recorded as “与GPER具有较强的结合能力; also recorded: 结合能力尤为突出”. Also, in test [4] (55 to 70°C), the “abundance of GPER target protein after heating vs vehicle” value is recorded as “丰度高于用载体处理的蛋白质的丰度” and the “stability of target protein” value was “增加了靶蛋白的稳定性; also recorded: 能促进GPER靶蛋白的热稳定”. Also, the “binding to GPER overexpressing cell line” value in test [5] is “能与GPER基因过表达细胞系相结合”.
